According to patent publication US20100204203A1, “Chemical Compounds 637: Pyridopyrimidinediones as PDE4 Inhibitors” (priority 2007, published 2010):

These compounds were tested against recombinant Human Phosphodiesterase B2 (PDE4B2) (Homo sapiens, UniProt Q07343) (assay: Human Phosphodiesterase B2 Radiometric Assay (yttrium silicate SPA beads, [3H]cyclic AMP)). Details: recombinant human PDE4B2, radiometric SPA assay, 8 nM [3H]cyclic AMP; read-out: PDE4B2 pIC50 (converted).
Format: biochemical
Outline: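 Compounds were preincubated 30 min at 30 °C with 0.1 mg/mL PDE4B2 in 50 mM HEPES pH 7.5, 8.3 mM MgCl2, 1.7 mM EGTA, 0.01% Brij 35. Then 8 nM [3H]cAMP was added for 20 min, stopped with yttrium silicate SPA beads plus 18 mM ZnSO4 capturing product 5′AMP; pIC50 by curve fitting.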

Sequence of recombinant Human Phosphodiesterase B2 (PDE4B2) (Q07343 1-564 isoform Q07343-2): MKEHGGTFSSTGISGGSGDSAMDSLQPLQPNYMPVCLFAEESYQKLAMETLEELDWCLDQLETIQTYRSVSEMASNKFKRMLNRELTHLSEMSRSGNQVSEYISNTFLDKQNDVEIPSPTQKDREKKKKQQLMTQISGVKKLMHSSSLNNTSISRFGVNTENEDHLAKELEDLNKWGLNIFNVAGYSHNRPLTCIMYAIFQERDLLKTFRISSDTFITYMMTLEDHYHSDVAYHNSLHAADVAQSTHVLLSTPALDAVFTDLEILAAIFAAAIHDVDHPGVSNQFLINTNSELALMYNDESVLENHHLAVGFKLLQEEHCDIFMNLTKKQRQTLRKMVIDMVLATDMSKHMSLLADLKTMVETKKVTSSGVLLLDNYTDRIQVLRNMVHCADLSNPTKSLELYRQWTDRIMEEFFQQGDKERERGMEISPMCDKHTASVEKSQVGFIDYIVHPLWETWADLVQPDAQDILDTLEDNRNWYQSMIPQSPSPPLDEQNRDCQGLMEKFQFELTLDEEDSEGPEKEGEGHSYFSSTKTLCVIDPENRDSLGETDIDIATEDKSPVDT

Row | Compound | IC50
1 | Cc1ccc2nc(CN[C@H]3CC[C@@H](n4c(=O)c5cc(F)cnc5n(-c5cccc(-c6ccc(O)cc6CN6CCOCC6)c5)c4=O)CC3)cn2c1 [Example 334, 6-fluoro-1-[4′-hydroxy-2′-(morpholin-4-ylmethyl)biphenyl-3-yl]-3-(cis-4-{[(6-methylimidazo[1,2-a]pyridin-2-yl)methyl]amino}cyclohexyl)pyrido[2,3-d]pyrimidine-2,4 (1H,3H)-dione] | 0.0631 nM
2 | CC(=O)n1cc(CN[C@H]2CC[C@@H](n3c(=O)c4cc(F)cnc4n(-c4cccc(-c5ccc(CN6CCCOCC6)cc5)c4)c3=O)CC2)c2ccccc21 [Example 266, 3-(cis-4-{[(1-acetyl-1H-indol-3-yl)methyl]amino}cyclohexyl)-6-fluoro-1-[4′-(1,4-oxazepan-4-ylmethyl)biphenyl-3-yl] pyrido[2,3-d]pyrimidine-2,4(1H,3H)-dione] | 1 nM
3 | COc1ccc(CN[C@H]2CC[C@@H](n3c(=O)c4cc(F)cnc4n(-c4cccc(-c5ccc(CN6CCN(C(C)C)CC6)cc5)c4)c3=O)CC2)cc1Cl [Example 260, 3-{cis-4-[(3-chloro-4-methoxybenzyl)amino]cyclohexyl}-6-fluoro-1-{4′-[(4-isopropyl-piperazin-1-yl)methyl]biphenyl-3-yl}pyrido[2,3-d]pyrimidine-2,4(1H,3H)-dione] | 0.501 nM
4 | Cc1cccc2nc(C(=O)N[C@H]3CC[C@@H](n4c(=O)c5cc(F)cnc5n(-c5cccc(-c6ccc(CN7CCCN(C)CC7)cc6)c5)c4=O)CC3)cn12 [Example 220, N-{cis-4-[6-fluoro-1-{4′-[(4-methyl-1,4-diazepan-1-yl)methyl]biphenyl-3-yl}-2,4-dioxo-1,4-dihydropyrido[2,3-d]pyrimidin-3(2H)-yl]cyclohexyl}-5-methylimidazo[1,2-a]pyridine-2-carboxamide] | 0.00794 nM
5 | COc1ccc(CN[C@H]2CC[C@@H](n3c(=O)c4cc(F)cnc4n(-c4cccc(-c5ccc(CN6CCCOCC6)cc5)c4)c3=O)CC2)cc1Cl [Example 258, 3-{cis-4-[(3-Chloro-4-methoxybenzyl)amino]cyclohexyl}-6-fluoro-1-[4′-(1,4-oxazepan-4-ylmethyl)biphenyl-3-yl]pyrido[2,3-d]pyrimidine-2,4(1H,3H)-dione] | 2 nM
6 | Cc1cc(C(=O)N[C@H]2CC[C@@H](n3c(=O)c4cc(F)cnc4n(-c4cccc(-c5ccc(CN6CCC(N7CCCC7)CC6)cc5)c4)c3=O)CC2)nn1C [Example 118, N-{cis-4-[6-fluoro-2,4-dioxo-1-{4′-[(4-pyrrolidin-1-ylpiperidin-1-yl)methyl]biphenyl-3-yl}-1,4-dihydropyrido[2,3-d]pyrimidin-3(2H)-yl]cyclohexyl}-1,5-dimethyl-1H-pyrazole-3-carboxamide] | 0.0251 nM
7 | CC(=O)N[C@H]1CC[C@@H](n2c(=O)c3cc(F)cnc3n(-c3cccc(-c4ccccc4)c3)c2=O)CC1 [Example 65, N-[cis-4-(1-biphenyl-3-yl-6-fluoro-2,4-dioxo-1,4-dihydropyrido[2,3-d]pyrimidin-3(2H)-yl)cyclohexyl]acetamide] | 0.398 nM
8 | CC(C)NCCc1ccc(-c2cccc(-n3c(=O)n([C@H]4CC[C@@H](NC(=O)c5cn6cc(F)ccc6n5)CC4)c(=O)c4cc(F)cnc43)c2)cc1 [Example 98, 6-fluoro-N-{cis-4-[6-fluoro-1-{4′-[2-(isopropylamino)ethyl]biphenyl-3-yl}-2,4-dioxo-1,4-dihydropyrido[2,3-d]pyrimidin-3(2H)-yl]cyclohexyl}imidazo[1,2-a]pyridine-2-carboxamide] | 0.126 nM
9 | C[C@@H]1CN(Cc2ccc(-c3cccc(-n4c(=O)n([C@H]5CC[C@@H](NC(=O)c6cnc7ccccc7n6)CC5)c(=O)c5cc(F)cnc54)c3)cc2)C[C@H](C)N1 [Example 303, N-{cis-4-[1-(4′-{[(3R,5S)-3,5-dimethylpiperazin-1-yl]methyl}biphenyl-3-yl)-6-fluoro-2,4-dioxo-1,4-dihydropyrido[2,3-d]pyrimidin-3(2H)-yl]cyclohexyl} quinoxaline-2-carboxamide] | 0.02 nM
10 | C[C@@H]1CN(Cc2ccc(-c3cccc(-n4c(=O)n([C@H]5CC[C@@H](NC(=O)c6cc7ccccc7cn6)CC5)c(=O)c5cc(F)cnc54)c3)cc2)C[C@H](C)N1 [Example 304, N-{cis-4-[1-(4′-{[(3R,5S)-3,5-dimethylpiperazin-1-yl]methyl}biphenyl-3-yl)-6-fluoro-2,4-dioxo-1,4-dihydropyrido[2,3-d]pyrimidin-3(2H)-yl]cyclohexyl} isoquinoline-3-carboxamide] | 0.0501 nM
11 | CCN(CC)CCOc1ccc(CN(C(C)=O)[C@H]2CC[C@@H](n3c(=O)c4cc(F)cnc4n(-c4cccc(-c5ccc(CN6CCN(C(C)C)CC6)cc5)c4)c3=O)CC2)cc1 [Example 340, N-{4-[2-(diethylamino)ethoxy]benzyl}-N-{cis-4-[6-fluoro-1-{4′-[(4-isopropylpiperazin-1-yl)methyl]biphenyl-3-yl}-2,4-dioxo-1,4-dihydropyrido[2,3-d]pyrimidin-3 (2H)-yl]cyclohexyl}acetamide] | 1.58 nM
12 | CC(C)[C@@H](N)C(=O)N[C@H]1CC[C@@H](n2c(=O)c3cc(F)cnc3n(-c3cccc(-c4ccc(CN5CCCN(C)CC5)cc4)c3)c2=O)CC1 [Example 313, N-{cis-4-[6-fluoro-1-{4′-[(4-methyl-1,4-diazepan-1-yl)methyl]biphenyl-3-yl}-2,4-dioxo-1,4-dihydropyrido[2,3-d]pyrimidin-3(2H)-yl]cyclohexyl}-D-valinamide] | 0.398 nM
13 | CN1CCCN(Cc2ccc(-c3cccc(-n4c(=O)n([C@H]5CC[C@@H](NC(=O)CCN6CCCCC6)CC5)c(=O)c5cc(F)cnc54)c3)cc2)CC1 [Example 293, N-{cis-4-[6-fluoro-1-{4′-[(4-methyl-1,4-diazepan-1-yl)methyl]biphenyl-3-yl}-2,4-dioxo-1,4-dihydropyrido[2,3-d]pyrimidin-3(2H)-yl]cyclohexyl}-3-piperidin-1-ylpropanamide] | 2 nM
14 | CN1CCCC1c1ccc2nc(C(=O)N[C@H]3CC[C@@H](n4c(=O)c5cc(F)cnc5n(-c5cccc(-c6ccccc6)c5)c4=O)CC3)cn2c1 (stereo partly drawn) [Example 2, N-[cis-4-(1-biphenyl-3-yl-6-fluoro-2,4-dioxo-1,4-dihydropyrido[2,3-d]pyrimidin-3(2H)-yl)cyclohexyl]-6-(1-methylpyrrolidin-2-yl)imidazo[1,2-a]pyridine-2-carboxamide] | 0.158 nM
15 | CC(C)N1CCN(Cc2ccc(-c3cccc(-n4c(=O)n([C@H]5CC[C@@H](NC(=O)C6CC6)CC5)c(=O)c5cc(F)cnc54)c3)cc2)CC1 [Example 233, N-{cis-4-[6-fluoro-1-{4′-[(4-isopropylpiperazin-1-yl)methyl]biphenyl-3-yl}-2,4-dioxo-1,4-di-hydropyrido[2,3-d]pyrimidin-3(2H)-yl]cyclohexyl}cyclo-propanecarboxamide] | 0.0501 nM
16 | O=c1c2cc(F)cnc2n(-c2cccc(-c3ccc(O)cc3CN3CCOCC3)c2)c(=O)n1[C@H]1CC[C@@H](NCc2ccccc2F)CC1 [Example 285, 6-fluoro-3-{cis-4-[(2-fluorobenzyl)amino]cyclohexyl}-1-[4′-hydroxy-2′-(morpholin-4-ylmethyl)biphenyl-3-yl]pyrido[2,3-d]pyrimidine-2,4(1H,3H)-dione] | 0.794 nM
